Compound `Cc1cc(O)[nH+]c(O)[nH+]1` gave a pKa (acidic group) of 1.2.
As for `C1CCN(CCC[NH+]2CCCCC2)CC1`, the pKa (basic group) came out at 7.97.
For `Nc1nc2nc[nH]c2c(N)[n+]1[O-]`, the pKa reads like this: (acidic group) 9.7; (basic group) 3.7.
As to `O=[N+]([O-])c1cccc(O)c1O`, the pKa (acidic group) was 6.64.
`CNCCO` yielded a pKa (basic group) of 9.91.
The compound `O=C(O)c1cc(Cl)co1` yielded a pKa (acidic group) of 2.69.
`Oc1ccc(NCc2ccccc2)cc1`: the pKa (basic group) is 5.17.
On the same count and under the same terms, the result for `[O-]c1ccnc([S-])n1` reads 12.7; that for `CCOCCNc1ccc(OC)cc1`, 4.99.
Same read-out and setting: the figure for `CNC(C(=O)[O-])C(C)C` (centres undefined) is 9.9.
Same read-out and setting: the figure for `COc1cccnc1C=O` is 3.89; for `CCN1[C@H](C)[C@@H]1C` (some centres undefined) it is 8.57; for `Cc1ccc(C)c(N)c1` it is 4.47.
`C[C@H]1[C@@H](N)[C@@H](C)[C@@H](N)[C@@H](C)[C@H]1N` returned a pKa (basic group) of 7.83.
The compound `C[NH+](C)CCC/N=C(\c1ccccc1)c1ccccc1-c1ccccc1` registered a pKa (basic group) of 4.43.
`O=S(=O)(Nc1ccc(Br)cc1)c1ccccc1`: the pKa (acidic group) was 7.78.
For `COc1ccc(N)cc1CN`, the pKa (basic group) came to 9.77.
The compound `C[NH+](C)CCCNC(=O)/C=N/O` yielded a pKa (acidic group) of 8.68.
For the setting “basic group”, `C[NH2+]CCCNc1c2ccccc2nc2cccc([N+](=O)[O-])c12` returned a pKa of 6.2.
For `Cc1cccc(NC=S)c1`, the pKa (acidic group) worked out at 11.6.
Compound `C(=C\CN1CCCCC1)/CN1CCCCC1` yielded a pKa (basic group) of 9.7.
Compound `c1ccc(C2NCCS2)cc1` (centres undefined) gave a pKa (basic group) of 5.2.
Still for that read-out and setting: the result for `Nc1ccc2c(c1)Cc1cc(O)ccc1-2` reads 4.88.
For the compound `COCCSC(C)O` (centres undefined), where the note is “acidic group”, the pKa came to 14.2.
Under “acidic group”, `CC(C)(C)c1ccc2c(c1)C(=O)NC2=O` yielded a pKa of 10.2.
On the same count and under the same terms, the figure for `CC(S)C(=O)O` (centres undefined) is 3.35.
Under “basic group”, `OCCCCc1cccnc1` registered a pKa of 5.7.
Take `CC(C)(C)O`: the pKa (acidic group) was 17.
`CCC1CCCN1C` (centres undefined) gave a pKa (basic group) of 9.78.
The same measure, in the same setting: the result for `N#CC1CC2CCN1CC2` (centres undefined) reads 5.85; that for `Cc1cnc2c(ccc3cc(C)cnc32)c1`, 5.23.
Compound `Cc1cccc(C)c1C(=O)O` came in with a pKa (acidic group) of 3.23.
Same read-out and setting: the result for `COCC(=O)O` reads 3.53.
As to `S=c1[nH]c(SCc2ccccc2)c(-c2ccccc2)[nH]1`, the pKa by setting is: (acidic group) 9.55; (basic group) -3.31.
For `CC(=O)c1cc(C(C)=O)[nH]n1`, the pKa (acidic group) was determined as 8.98.
The compound `C[N+]1(CCC(=O)O)CCCCC1` yielded a pKa (acidic group) of 3.43.
Turning to `CCOC(=O)N1CCNCC1`, the pKa (basic group) was 8.28.
On the same count and under the same terms, the result for `CC1/C(=N\O)C[C@@H]2N=C(c3ccccc3)O[C@@]13[C@@H]1OC(=O)[C@H](C)[C@H]1CC[C@]23C` (some centres undefined) reads 4.65; that for `CCCCCCCCN(CCO)CC(C)O` (centres undefined), 8.2; that for `c1ccc2c(c1)CNCCCNCc1ccccc1OCCO2`, 9.82.
Turning to `CC(c1cccc(C(F)(F)F)c1)[N+](=O)[O-]` (centres undefined), the pKa (acidic group) turned out to be 6.96.
`CCOC(=O)C1(c2ccccc2)CCN(CC)CC1` yielded a pKa (basic group) of 9.03.
In the case of `O=C(O)CCc1c[nH]c[nH+]1`, under “acidic group”, the pKa came out at 4.
`Cc1ccc([N+](=O)[O-])c2c(NCCC[NH+](C)C)ccnc12` showed a pKa (basic group) of 6.84.
On the same count and under the same terms, the result for `c1ccc2cc3ncccc3cc2c1` reads 4.92.
Under “acidic group”, `CO[C@H]1C[C@H]1C(=O)O` returned a pKa of 4.76.
The same measure, in the same setting: the figure for `Cn1c(=O)ccc2ccccc21` is -0.71.
Take `CNc1ncnc2c1cnn2C`: for the setting “basic group”, the pKa turned out to be 4.24.
Compound `Nc1ccc2ccc([N+](=O)[O-])cc2c1` yielded a pKa (basic group) of 3.13.
With `O=C(O)c1nccs1`, the pKa (basic group) stood at 2.57.
The compound `O=S(O)c1ccccc1` showed a pKa (acidic group) of 1.72.
As for `O=C(O)/C(I)=C\c1ccccc1`, the pKa (acidic group) turned out to be 2.24.
Still for that read-out and setting: the figure for `O=Cc1cc(Cl)cc([N+](=O)[O-])c1O` is 4.46.
On the same count and under the same terms, the result for `CSC(C)C(=O)O` (centres undefined) reads 3.76; that for `O=C(O)CCCC(=O)NOCc1ccccc1`, 4.7.
Same read-out and setting: the figure for `Cc1cccc(NS(=O)(=O)c2ccccc2)c1` is 8.48; for `Oc1nc2nc[nH]c2c[nH+]1` it is 1.69; for `CC1CCCC(=O)C1=O` (centres undefined) it is 11.2.
`CN[C@H]1C(C)[C@@H]1NC` (some centres undefined): the pKa (basic group) is 9.03.
The same measure, in the same setting: the result for `NCCCC#CC#CCCC(=O)[O-]` reads 9.94.
Regarding `COc1nc2ncncc2[nH]1`, the pKa is, setting by setting: (acidic group) 7.73; (basic group) 3.14.
As to `Cc1cc(-c2ccccc2)nnc1NCC[NH+]1CCOCC1`, where the note is “basic group”, the pKa amounted to 4.
Compound `Nc1c2[n-]cnc2nc[n+]1[O-]` displayed a pKa (acidic group) of 13.
The compound `CC1CCCC(C)(C)N1` (centres undefined) returned a pKa (basic group) of 11.3.
In turn, `O=[N+]([O-])c1ccc(/C=N/O)cc1` showed a pKa (acidic group) of 10.
`On1nnc2ccc(Cl)cc21`: for the setting “acidic group”, the pKa came out at 4.15.
Compound `CC(C)NCC(O)c1cccc(N)c1` (centres undefined) displayed a pKa (basic group) of 9.6.
In turn, `O=C(O)c1cc2ccccc2cc1O` registered a pKa (acidic group) of 2.71.
The same measure, in the same setting: the figure for `CCCC(C)C1(CC)C(=O)NC(=O)NC1=O` (centres undefined) is 8.08.
`N[C@@H](C(=O)[O-])[C@H](O)C(=O)[O-]`: the pKa (basic group) is 9.
`O=C(O)[C@@H]1CCC[C@H](O)C1` returned a pKa (acidic group) of 4.6.
With `[S-]c1ccncn1`, the pKa (basic group) is 6.7.
Consider `NC(N)=O`, for which the pKa (basic group) is 0.4.
Turning to `CN(CCN)CC[NH+](C)C`, the pKa (basic group) amounted to 9.23.
For `N#Cc1cccc(NS(=O)(=O)c2ccccc2)c1`, the pKa (acidic group) worked out at 7.15.
The compound `CN(C)CC(P(=O)([O-])[O-])P(=O)([O-])[O-]` registered a pKa (basic group) of 8.98.
For the compound `CC(=O)c1c(C)cc(C)cc1C`, the pKa (acidic group) came to 10.7.
Still for that read-out and setting: the result for `C#CC#CC#CCC(O)CCC(=O)O` (centres undefined) reads 4.75; that for `O=C([O-])CC(=O)/C=N/O`, 8.7.
The same measure, in the same setting: the figure for `O=C(O)c1cnoc1` is 3.39.
For the setting “acidic group”, `CC(=O)[C@@H]1C[C@@H]1C(=O)O` registered a pKa of 4.19.
Turning to `CCCSS/C(CCO)=C(/C)N(C=O)Cc1cnc(C)nc1N`, the pKa (basic group) was 5.52.
`CCCC(O)C(C(=O)O)c1ccc(-c2ccccc2)cc1` (centres undefined) came in with a pKa (acidic group) of 4.01.
On the same count and under the same terms, the figure for `CC(C#N)(Cc1ccccc1)C(=O)O` (centres undefined) is 2.29.
The compound `NCC1CCCCC1` gave a pKa (basic group) of 10.5.
The same measure, in the same setting: the result for `CN1CCCCN1C` reads 6.66; that for `CN1C(=N)Cc2ccccc21`, 9.6.
The same measure, in the same setting: the result for `N/C(CC/C(N)=N/O)=N\O` reads 5.97; that for `Cc1ccccc1NC(=N)Nc1ccccc1C`, 9.67; that for `Cc1ccccc1-n1nnnc1N`, 1.23.
Consider `Oc1cc2cccnc2c2cccnc12`, for which the pKa reads like this: (acidic group) 8.5; (basic group) 3.9.
`CC1([NH3+])C[C@]1(C)N` (some centres undefined) yielded a pKa (basic group) of 5.94.
On to `C[n+]1c([S-])nc([O-])c2ccccc21`, for which the pKa (basic group) came out at 9.23.
On the same count and under the same terms, the figure for `CC[NH+](CC)CCCC(C)Nc1cc(C)nc2cc(Cl)ccc12` (centres undefined) is 8.52; for `C=CC(C)(C)NC(C)(C)CC` it is 10.8.
In the case of `Cc1cc(Nc2ccc([O-])cc2)c(C(C)C)cc1O`, for the setting “acidic group”, the pKa stood at 10.7.
Consider `CCN(CC)Cc1ccccc1`, for which the pKa (basic group) amounted to 9.44.
On to `CN(C)Cc1ccc(C[NH+](C)C)c(O)c1O`, for which the pKa (basic group) was found to be 6.39.
As to `Oc1c(Cl)cc(Cl)c2cccnc12`, the pKa runs as follows: (acidic group) 7.51; (basic group) 2.89.
`COC(=O)C1=C(C(=O)OC)CC=C1` registered a pKa (acidic group) of 5.
In the case of `Cn1ncc2c(NCc3ccco3)ncnc21`, where the note is “basic group”, the pKa is 3.8.
In turn, `COc1ccccc1C(=O)O` returned a pKa (acidic group) of 4.05.
For `C[C@H](N)[C@H](C)[NH3+]`, the pKa (basic group) amounted to 6.79.
Where the note is “basic group”, `C[C@@H](CC(C#N)(c1ccccc1)c1ccccc1)N(C)C` came in with a pKa of 8.31.
The compound `N#C/C(=N\O)C(N)=O` had a pKa (acidic group) of 5.12.
On the same count and under the same terms, the figure for `CCCCCCCC(=O)NO` is 9.19.
In turn, `CCCN(C)C` displayed a pKa (basic group) of 9.62.
Turning to `Cn1nc(-c2ccccc2)cc1O`, for the setting “acidic group”, the pKa was determined as 10.9.
In turn, `CC([NH3+])C(=O)O` (centres undefined) displayed a pKa (acidic group) of 2.36.
With `Nc1nnnn1-c1cccc(Cl)c1`, under “basic group”, the pKa was 0.7.
On the same count and under the same terms, the result for `OCCCc1cccnc1` reads 5.57; that for `Cc1n[nH]c2c(NCc3ccco3)ncnc12`, 4.84.
Regarding `CC(=O)NC(CS)C(=O)O` (centres undefined), where the note is “acidic group”, the pKa came out at 3.08.
For the setting “basic group”, `Cc1ccc(N)cc1C` showed a pKa of 4.94.
Consider `O=C([O-])/C=C/C(=O)CC(=O)CC(=O)[O-]`, for which the pKa (acidic group) was 8.4.
Same read-out and setting: the result for `CC1(C)C(=O)NC(=O)C1(C)C` reads 9.7.
With `CC(C)C(N)C(=O)O` (centres undefined), where the note is “basic group”, the pKa worked out at 9.58.
As for `Cc1ccc(S)cc1`, the pKa (acidic group) turned out to be 6.47.
Take `O=C(O)c1cccc(F)c1`: for the setting “acidic group”, the pKa was 3.9.
The same measure, in the same setting: the result for `[NH3+]c1ccc(CC(=O)O)cc1` reads 3.49.
Turning to `CCn1cnc2ccccc21`, the pKa (basic group) was found to be 5.66.
Still for that read-out and setting: the result for `Cc1nnc2c(c1C)CCCC2` reads 5.41.
In the case of `CC(C)NCC(=O)c1ccc([O-])cc1`, where the note is “basic group”, the pKa came to 9.58.
The compound `O=C(O)C1CC1(Br)Br` (centres undefined) registered a pKa (acidic group) of 3.57.
Consider `c1ccc(CSc2ncn[nH]2)cc1`, for which the pKa (acidic group) came out at 9.5.
Consider `Cc1cn(C)nc1C`, for which, for the setting “basic group”, the pKa worked out at 3.56.
Still for that read-out and setting: the figure for `CCCCNCCC#N` is 8.3.
Compound `CC(=O)c1cccc(C(=O)O)c1` came in with a pKa (acidic group) of 3.84.
Consider `CNN(C)C`, for which, for the setting “basic group”, the pKa amounted to 6.64.
The same measure, in the same setting: the result for `Cn1cc/c(=N\N)c2ccccc21` reads 10.6; that for `O=Cc1cccnc1`, 3.73.
Still for that read-out and setting: the result for `Cc1ncnc2nccnc12` reads 2.92.
For the compound `Nc1ncnc2cn[nH]c12`, the pKa reads like this: (acidic group) 10.2; (basic group) 5.
`CC(C)(C)N1NC2CCC1C2` (centres undefined) came in with a pKa (basic group) of 9.12.
The same measure, in the same setting: the figure for `c1ccc(-c2ccc3nc(CN4CCOCC4)cn3n2)cc1` is 6.25.
`Oc1ccccc1CN1CCCNCCC[NH2+]CCC1` had a pKa (basic group) of 6.64.
`CC(C)(C)c1cc(/C=C/Cl)cc(C(C)(C)C)c1O` registered a pKa (acidic group) of 11.8.
On to `CC(=O)C1CCCCC1=O` (centres undefined), for which the pKa (acidic group) came to 10.2.
The same measure, in the same setting: the figure for `O=[N+]([O-])c1ccc2ccc(O)cc2c1` is 8.81.
For the compound `NCc1ccc(O)c(O)c1`, the pKa (basic group) turned out to be 8.6.
In the case of `O=C(O)[C@@H]1CC[C@@H](C(=O)O)[Se][Se]1`, for the setting “acidic group”, the pKa turned out to be 2.85.
Turning to `CNCC[S-]`, for the setting “basic group”, the pKa worked out at 10.8.
Take `Oc1cc[n+](O)cc1`: the pKa (acidic group) turned out to be 2.4.
